Common to all, as to assay type: functional, cell-based
One assay concerns KB. The assay is described as follows: Cytotoxicity against human KB cells.
Assay [1] is described as follows: Cytotoxicity against human KB/VJ300 cells.
Assay [2] can be described thus: Cytotoxicity against human multidrug-resistant KB/VJ300 cells in presence of 0.12 uM vincristine.

The IC50 is the concentration at which inhibition is half-maximal.

On to `CC[C@]1(O)C[C@H]2CN(CCc3c([nH]c4ccccc34)[C@@](C(=O)OC)(c3cc4c(cc3OC)N(C=O)[C@H]3[C@@](O)(C(=O)OC)[C@H](OC(C)=O)[C@]5(CC)C=CCN6CC[C@]43[C@@H]65)C2)C1` [VINCRISTINE], for which the IC50 with KB worked out at 0.0167 µM; in assay [1], 1.33 µM.
As to `COC(=O)C1=C[C@@]23CCCN4CC[C@@]5(c6ccccc6N[C@]15CC2)[C@@H]43` [KOPSIJASMININE], the IC50 in assay [2] was found to be 38.7 µM.
